For data set [1] the following is noted: 101 kPa, Liquid, Vibrating tube method.
Data set [2] can be described thus: mn = molality of the nth substance listed, in mol/kg. The conditions noted are these: 101 kPa, Liquid, Vibrating tube method, m2 = 0.

± gives the expanded uncertainty stated by the source.

By mass density is commonly meant the mass of a sample divided by its volume.

Turning to `CC(=O)N(C)C` [N,N-dimethylethanamide], the mass density was 950.04 ± 0.3 kg/m3 in data set [1] (283.15 K); 940.83 ± 0.3 kg/m3 in data set [1] (293.15 K); 936.22 ± 0.3 kg/m3 in data set [1] (298.15 K); 931.61 ± 0.3 kg/m3 in data set [1] (303.15 K); 922.35 ± 0.3 kg/m3 in data set [1] (313.15 K); 913.08 ± 0.3 kg/m3 in data set [1] (323.15 K). The mass density in data set [1] (333.15 K) stood at 903.76 ± 0.3 kg/m3.

On to `CC(=O)N(C)C` [N,N-dimethylethanamide] + O=S(=O)([O-])C(F)(F)F.[Na+], for which the mass density in data set [2] (283.15 K) stood at 950.04 ± 0.3 kg/m3; in data set [2] (293.15 K) it was 940.83 ± 0.3 kg/m3; in data set [2] (298.15 K), 936.22 ± 0.3 kg/m3; in data set [2] (303.15 K) it was 931.61 ± 0.3 kg/m3; in data set [2] (313.15 K), 922.35 ± 0.3 kg/m3; in data set [2] (323.15 K) it was 913.08 ± 0.3 kg/m3. In data set [2] (333.15 K), the mass density came to 903.76 ± 0.3 kg/m3.

With `CN(C)C=O` [dimethylformamide], the mass density in data set [1] (283.15 K) is 958.07 ± 0.3 kg/m3; in data set [1] (293.15 K), 948.56 ± 0.3 kg/m3; in data set [1] (298.15 K), 943.79 ± 0.31 kg/m3; in data set [1] (303.15 K) it was 939.01 ± 0.31 kg/m3; in data set [1] (313.15 K), 929.43 ± 0.31 kg/m3; in data set [1] (323.15 K), 919.81 ± 0.31 kg/m3. The mass density in data set [1] (333.15 K) stood at 910.11 ± 0.31 kg/m3.

Regarding `CN(C)C=O` [dimethylformamide] + O=S(=O)([O-])C(F)(F)F.[Na+], the mass density is given as 958.07 ± 0.3 kg/m3 in data set [2] (283.15 K); 948.56 ± 0.3 kg/m3 in data set [2] (293.15 K); 943.79 ± 0.31 kg/m3 in data set [2] (298.15 K); 939.01 ± 0.31 kg/m3 in data set [2] (303.15 K); 929.43 ± 0.31 kg/m3 in data set [2] (313.15 K); 919.81 ± 0.31 kg/m3 in data set [2] (323.15 K). For the same compound, the mass density in data set [2] (333.15 K) is recorded as 910.11 ± 0.31 kg/m3.

(Values after the NIST ThermoML archive (doi:10.1016/j.jct.2012.11.004).)
